Values of other authors in patent US20230190604A1, “DERMATOLOGIC/PERSONAL CARE CONCENTRATES” (Vantage Specialty Ingredients, Inc., priority 2021, published 2023).

Experiments:
[1] = ethanol as solvent, "normal temperatures"
[2] = water as solvent

O=C(O)CCCCCCCC(=O)O [azelaic acid]
stability of azelaic acid in ethanol [1]: unstable | maximum concentration of azelaic acid dissolved in water [2]: about 0.24 % by weight (w/w)
